Assay results reported in patent publication US20040157930A1, “Histone deacetylase enzyme-inhibiting derivatives of hydroxamic acid as new cytokine synthesis-inhibiting anti-inflammatory drugs” (priority 2001, published 2004).

Tested on: DSS-induced colitis
Experiment: Dextran-induced colitis
Assay type: in vivo, C57BL/6 mice
Conditions: for Complete clinical score: 0 (healthy) to 4; for Weight: in g; for Bleeding / Stool consistency as score: score 0-4; for Colon length: post mortem day 10
Procedure: Female, 8 week-old C57BL/6 mice (The Jackson Laboratories, Bar Habor, Me.) weighing 20-22 g were used in this study. The animals were housed in rooms at a controlled temperature and a 12 h day/night rhythm. They were fed standard mice chow pellets ad libitum, had free access to tap water supplied in bottles, and were acclimatized to the conditions at least seven days before they were used in experiments. Mice were killed by cervical dislocation under isoflurane anesthesia (Fort Dodge, Iowa City, Iowa).
; molecular weight 40 kDa; ICN, Aurora, Ohio) dissolved in sterile, distilled water ad libitum from day one to five followed by a five day observation period. […]. Body weights, occult blood or the presence of gross blood per rectum, and stool consistency were determined daily. Two investigators blinded to the protocol assessed the clinical score (table 1). Weight loss <1% compared to day 1 was counted as 0 points, weight loss of 1 to <5% as 1 point, 5 to <9.9% as 2 points, 10 to 20% as 3 points and more than 20% as 4 points. […] Bleeding was scored 0 points for no blood in hemoccult, 2 points for positive hemoccult, and 4 points for gross bleeding. These scores (body weight, stool consistency, rectal bleeding) were added and divided by 3 resulting in a total clinical score ranging from 0 (healthy) to 4 (maximal activity of colitis).
Post mortem (on day 10), the entire colon was removed from the caecum to the anus and the colon length was measured as an indirect marker of inflammation.

[1] = DSS + SAHA 10 mg/kg p.o. daily, day 1
[2] = DSS + SAHA 10 mg/kg p.o. daily, day 2
[3] = DSS + SAHA 10 mg/kg p.o. daily, day 3
[4] = DSS + SAHA 10 mg/kg p.o. daily, day 4
[5] = DSS + SAHA 10 mg/kg p.o. daily, day 5
[6] = DSS + SAHA 10 mg/kg p.o. daily, day 6
[7] = DSS + SAHA 10 mg/kg p.o. daily, day 7
[8] = DSS + SAHA 10 mg/kg p.o. daily, day 8
[9] = DSS + SAHA 10 mg/kg p.o. daily, day 9
[10] = DSS + SAHA 10 mg/kg p.o. daily, day 10
[11] = SAHA 10 mg/kg p.o. daily without DSS, day 1
[12] = SAHA 10 mg/kg p.o. daily without DSS, day 2
[13] = SAHA 10 mg/kg p.o. daily without DSS, day 3
[14] = SAHA 10 mg/kg p.o. daily without DSS, day 4
[15] = SAHA 10 mg/kg p.o. daily without DSS, day 5
[16] = SAHA 10 mg/kg p.o. daily without DSS, day 6
[17] = SAHA 10 mg/kg p.o. daily without DSS, day 7
[18] = SAHA 10 mg/kg p.o. daily without DSS, day 8
[19] = SAHA 10 mg/kg p.o. daily without DSS, day 9
[20] = SAHA 10 mg/kg p.o. daily without DSS, day 10

- Complete clinical score [11]: 0.0 ± 0.0
- Weight [11]: 18.9 ± 0.3
- Bleeding [11]: 0.0 ± 0.0
- Stool consistency as score [11]: 0.0 ± 0.0
- Complete clinical score [12]: 0.0 ± 0.0
- Weight [12]: 18.8 ± 0.4
- Bleeding [12]: 0.0 ± 0.0
- Stool consistency as score [12]: 0.0 ± 0.0
- Complete clinical score [13]: 0.0 ± 0.0
- Weight [13]: 18.9 ± 0.2
- Bleeding [13]: 0.0 ± 0.0
- Stool consistency as score [13]: 0.0 ± 0.0
- Complete clinical score [14]: 0.0 ± 0.0
- Weight [14]: 18.9 ± 0.3
- Bleeding [14]: 0.0 ± 0.0
- Stool consistency as score [14]: 0.0 ± 0.0
- Complete clinical score [15]: 0.0 ± 0.0
- Weight [15]: 19.0 ± 0.1
- Bleeding [15]: 0.0 ± 0.0
- Stool consistency as score [15]: 0.0 ± 0.0
- Complete clinical score [16]: 0.0 ± 0.0
- Weight [16]: 19.0 ± 0.3
- Bleeding [16]: 0.0 ± 0.0
- Stool consistency as score [16]: 0.0 ± 0.0
- Complete clinical score [17]: 0.0 ± 0.0
- Weight [17]: 18.9 ± 0.1
- Bleeding [17]: 0.0 ± 0.0
- Stool consistency as score [17]: 0.0 ± 0.0
- Complete clinical score [18]: 0.0 ± 0.0
- Weight [18]: 19.0 ± 0.3
- Bleeding [18]: 0.0 ± 0.0
- Stool consistency as score [18]: 0.0 ± 0.0
- Complete clinical score [19]: 0.0 ± 0.1
- Weight [19]: 19.1 ± 0.1
- Bleeding [19]: 0.0 ± 0.0
- Stool consistency as score [19]: 0.0 ± 0.0
- Complete clinical score [20]: 0.0 ± 0.0
- Weight [20]: 19.1 ± 0.2
- Bleeding [20]: 0.0 ± 0.0
- Stool consistency as score [20]: 0.0 ± 0.0
- Colon length (SAHA 10 mg/kg p.o. daily without DSS, water 10.5 ± 0.3): 10.1 ± 0.2 cm
Structure (SMILES): O=C(CCCCCCC(=O)Nc1ccccc1)NO [SAHA, suberoylanilide hydroxamic acid]
- Complete clinical score [1]: 0.0 ± 0.0
- Weight [1]: 19.1 ± 0.2
- Bleeding [1]: 0.0 ± 0.0
- Stool consistency as score [1]: 0.0 ± 0.0
- Complete clinical score [2]: 0.0 ± 0.0
- Weight [2]: 18.8 ± 0.2
- Bleeding [2]: 0.0 ± 0.0
- Stool consistency as score [2]: 0.0 ± 0.0
- Complete clinical score [3]: 0.1 ± 0.1
- Weight [3]: 19.1 ± 0.3
- Bleeding [3]: 0.0 ± 0.0
- Stool consistency as score [3]: 0.0 ± 0.0
- Complete clinical score [4]: 0.2 ± 0.1
- Weight [4]: 18.4 ± 0.4
- Bleeding [4]: 0.0 ± 0.0
- Stool consistency as score [4]: 0.0 ± 0.0
- Complete clinical score [5]: 0.7 + 0.3
- Weight [5]: 18.4 ± 0.4
- Bleeding [5]: 1.2 ± 0.4
- Stool consistency as score [5]: 0.8 ± 0.4
- Complete clinical score [6]: 1.3 ± 0.3
- Weight [6]: 18.7 ± 0.3
- Bleeding [6]: 2.4 ± 0.4
- Stool consistency as score [6]: 0.8 ± 0.4
- Complete clinical score [7]: 1.5 ± 0.1
- Weight [7]: 18.0 ± 0.4
- Bleeding [7]: 2.0 ± 0.0
- Stool consistency as score [7]: 2.0 ± 0.0
- Complete clinical score [8]: 1.9 ± 0.1
- Weight [8]: 16.9 ± 0.3
- Bleeding [8]: 1.6 ± 0.4
- Stool consistency as score [8]: 2.0 ± 0.0
- Complete clinical score [9]: 1.5 ± 0.4
- Weight [9]: 16.6 ± 0.4
- Bleeding [9]: 1.2 ± 0.4
- Stool consistency as score [9]: 1.2 ± 0.4
- Complete clinical score [10]: 1.3 ± 0.4
- Weight [10]: 16.6 ± 0.4
- Bleeding [10]: 0.8 ± 0.4
- Stool consistency as score [10]: 1.2 ± 0.4
- Colon length (DSS + SAHA 10 mg/kg p.o. daily, DSS + water 7.6 ± 0.2): 9.2 ± 0.2 cm
- effect on dextran-induced colitis (overall conclusion) (SAHA 10 mg/kg p.o. daily, days 1 to 10): effectively counteracts dextran-induced colitis
